Values after ≈ are worked out from the molar mass of the structure shown.
Assays:
E. coli ATCC 25922 = experiment: Broth microdilution MIC and plating MBC; format: cell-based; conditions: Escherichia coli, ATCC25922
Description: (§1) To determine the minimal inhibitory concentration (MIC), classical broth microdilution method was performed after protocols from Wiegand et al.[15]. The influence of cations was analyzed by using cation adjusted Mueller-Hinton bouillon II with 20–25 mg/l Ca^2+ and 10–12.5 mg/l Mg^2+ (MH^++; BBL, Germany) or Mueller-Hinton bouillon without cations (MH^−; Merck, Germany) (n = 4–8).
(§2) The maximal concentration of the AMPs was between 200–271 µg/ml. The differences in the AMP concentration are due to the purity of the peptides (absorption coefficient from 5.19 to 9.36).

E. faecalis ATCC 29212 = experiment: Broth microdilution MIC and plating MBC; format: cell-based; conditions: Enterococcus faecalis, ATCC29212, MH++ (with cations), n = 4–8
Description: as §1, §2

P. aeruginosa ATCC 27853 = experiment: Broth microdilution MIC and plating MBC; format: cell-based; conditions: Pseudomonas aeruginosa; for MIC: 37 °C, 18–24 h
Description: as §1, §2

S. aureus ATCC 29213 = experiment: Broth microdilution MIC and plating MBC; format: cell-based; conditions: Staphylococcus aureus
Description: as §1, §2

S. epidermidis PIA 8400 = experiment: Broth microdilution MIC and plating MBC; format: cell-based; conditions: Staphylococcus epidermidis; for MIC: 1–5 × 10^5 cfu/ml, 37 °C, 18–24 h; for MBC: plated on Columbia-agar overnight 37 °C
Description: as §1, §2

S. aureus MRSA = experiment: Broth microdilution MIC and plating MBC, clinical isolate; format: cell-based; conditions: Staphylococcus aureus, MH++ (with cations), n = 4–8
Text: (§3) The strains Escherichia coli (ATCC 25922), Enterococcus faecalis (ATCC 29212), Pseudomonas aeruginosa (ATCC 27853), Staphylococcus aureus (ATCC 29213) were used. In addition, following clinical isolates were used: Staphylococcus epidermidis (PIA 8400, isolated from blood cultures[48]), and two Staphylococcus aureus (MRSA and MSSA, both isolated from osteosyntheses material, kindly provided by Andrej Trampuz, Charité).
as §1, §2

S. aureus MSSA = experiment: as above; format: cell-based; conditions: Staphylococcus aureus
Text: as §3, §1, §2

planktonic S. aureus = experiment: MIC by isothermal microcalorimetry, planktonic bacteria; format: cell-based, Staphylococcus aureus; conditions: Staphylococcus aureus; MH++, heat flow 24 hours, n = 3; read-out: MIC (calorimetry)
Description: Mueller-Hinton II bouillon with adjusted cations (MH^++; BBL, Germany), Mueller-Hinton bouillon with low cations (MH^+; with 3-4 mg/l Ca^2+ and 5-6 mg/l Mg^2+; Oxoid, Germany) and Mueller-Hinton bouillon without cations (MH^-; Merck, Germany). AMP2 concentrations of 2-33 μg/ml were tested with the three different bouillons and gentamicin concentrations of 0.125-2 μg/ml were analyzed with MH^++. Staphylococcus aureus (ATCC 29213, 300 μl with 10^5 cfu/ml) was added to each microcalorimetry glass ampoule (Waters; […] The ampoules were hermetically sealed and heat flow (W) was measured for 24 hours in the calorimeter TAM III (TA Instruments, USA). […] ROBU […], Germany) in MH^++ bouillon at 37 °C in an aerobe atmosphere for 24 hours. […] Beads were washed again and added to the glass ampoule with fresh MH^++ bouillon. The total heat (J) was measured for 48 hours in the calorimeter. A concentration, which inhibits minimum 90% of biofilm, can be defined as the minimal biofilm inhibitory concentration (MICB). All samples were tested with n = 6.

S. aureus (ATCC 29213) = experiment: Zone of inhibition test of PDLLA-coated titanium wires; format: cell-based, Staphylococcus aureus; conditions: 10% w/w in poly(D,L-lactide) coating, n = 3, mean with standard deviation; day not given
Description: Titanium wires (diameter 1 mm, Synthes, USA) were coated with Poly(D,L-lactide) (PDLLA, Boehringer Ingelheim, Germany) and incorporated AMP2 at three different concentrations: 10% w/w, 20% w/w, or 30% w/w. Gentamicin/PDLLA (10% w/w) or PDLLA coated wires served as control. Briefly, 100 mg PDLLA was solved in 1.5 ml ethyl acetate and the wires were coated in a dipping procedure. Details of the coating were described previously. Three nails of each group were placed on Mueller-Hinton agar plates plated with S. aureus (ATCC 29213) and the zone of inhibition (ZOI) was quantified after 1, 3, 7, and 14 days using ImageJ software.

[1] = test system: S. aureus internalized in human primary osteoblast-like cells; experiment: Effect against internalized bacteria; format: cell-based, Staphylococcus aureus; conditions: 7.5 μg/ml, n = 7
Description: Human primary osteoblast-like cells were cultivated in 24-well plates with cultivation medium until they reached a minimum confluence of 80%. For the experiment, cells were washed and S. aureus (ATCC 29213) in cultivation medium added (~2 × 10^7 cfu/ml). After an incubation of 45 minutes, extracellular bacteria were killed using 200 µg/ml gentamicin dissolved in CM with 10% FCS, without P/S. After 1 hour incubation, gentamicin solution was removed, cells washed three times and AMP2 (33 and 67 µg/ml) in CM with only 1% FCS + no P/S added for 4 and 24 hours. As reference, 7.5 µg/ml rifampicin was used. All incubation steps were done in an incubator with 37 °C, 95% humidity and 5% CO2. For determination of the internalized bacteria, cells were lysed and the supernatant plated on CA plates. Experiment were done with n = 7.

[2] = test system: human primary osteoblast-like cells; format: cell-based
Description: (§4) (1) For the cytotoxicity test, 1 × 10^4 cells were seeded in 48-well plates with cultivation medium (CM) DMEM/Ham’s F-12 (D/H; Biochrom, Germany) + 10% fetal calf serum (FCS; Biochrom, Germany) + 1% penicillin/streptomycin (P/S; Biochrom, Germany) + 0.05 mM L-ascorbic-2 phosphate (L-Asc) + 0.05 mM β-glycerolphosphate (β-Glyc) and incubated overnight at 37 °C, 5% CO2 and 95% relative humidity. After adding the AMPs (3–542 µg/ml - depending on the AMP) or gentamicin (8–1024 µg/ml) in CM with 1% FCS, without Pen/Strep, cells were cultured for three days. Cell viability was determined with an AlamarBlue® assay before adding the AMPs and after 3 days. Alkaline phosphatase activity was measured on day 3.
Alamar Blue® (Biozol, Germany) was done according to the manufacturer’s instruction.

[3] = test system: human primary osteoblast-like cells; format: cell-based; remark: listed apart in the source
Description: as §4

S. aureus biofilm = experiment: Biofilm assay by microcalorimetry and plating (MBCB); format: cell-based, Staphylococcus aureus; conditions: 128 µg/ml daptomycin, calorimetry and plating (data not shown)
Description: To confirm MIC of the AMP2 by isothermal microcalorimetry, three different bouillons were tested: Mueller-Hinton II bouillon with adjusted cations (MH^++; BBL, Germany), Mueller-Hinton bouillon with low cations (MH^+; with 3–4 mg/l Ca^2+ and 5–6 mg/l Mg^2+; Oxoid, Germany) and Mueller-Hinton bouillon without cations (MH^−; Merck, Germany). AMP2 concentrations of 2–33 µg/ml were tested with the three different bouillons and gentamicin concentrations of 0.125–2 µg/ml were analyzed with MH^++. Staphylococcus aureus (ATCC 29213, 300 µl with 10^5 cfu/ml) was added to each microcalorimetry glass ampoule (Waters; Germany) containing 3.7 ml of AMP or gentamicin solution of (n = 3). The ampoules were hermetically sealed and heat flow (W) was measured for 24 hours in the calorimeter TAM III (TA Instruments, USA). For the biofilm assay, S. aureus biofilm was grown on glass beads (4 mm diameter, 60 µm pores; ROBU Glasfilter-Geräte, Germany) in MH^++ bouillon at 37 °C in an aerobe atmosphere for 24 hours. After washing with sodium chloride, beads were incubated with AMP2 (133, 267, 533 µg/ml) or daptomycin (128 µg/ml) in MH^++ bouillon for another 24 hours at 37 °C. Beads were washed again and added to the glass ampoule with fresh MH^++ bouillon. The total heat (J) was measured for 48 hours in the calorimeter. A concentration, which inhibits minimum 90% of biofilm, can be defined as the minimal biofilm inhibitory concentration (MICB). All samples were tested with n = 6.
Furthermore, the MBC for biofilms (MBCB) where 99.9% of all bacteria are killed was determined. After measurement, bouillon and glass beads were plated on CA plates and incubated for 24 hours at 37 °C in an aerobe atmosphere.

[4] = ATCC27853, MH++ (with cations), n = 4–8
[5] = ATCC27853, MH− (without cations), n = 4

CNC(C)C1CCC(N)C(OC2C(N)CC(N)C(OC3OCC(C)(O)C(NC)C3O)C2O)O1 (centres unmarked) [gentamicin]
MBC (E. coli ATCC 25922; MH++ (with cations), n = 4–8): 2 µg/mL (≈ 4.19 µM) | MIC (E. coli ATCC 25922; MH− (without cations), 37 °C, 18–24 h, n = 4): 1 µg/mL (≈ 2.09 µM) | MIC (E. faecalis ATCC 29212; 37 °C, 5% CO2, 18–24 h): 16 µg/mL (≈ 33.5 µM) | MBC (E. faecalis ATCC 29212): 32 µg/mL (≈ 67 µM) | MIC (P. aeruginosa ATCC 27853; [4]): 1 µg/mL (≈ 2.09 µM) | MBC (P. aeruginosa ATCC 27853; [4]): 4 µg/mL (≈ 8.38 µM) | MIC (P. aeruginosa ATCC 27853; [5]): 0.25 µg/mL (≈ 0.523 µM) | MBC (P. aeruginosa ATCC 27853; [5]): 1 µg/mL (≈ 2.09 µM) | MBC (S. aureus ATCC 29213; ATCC29213, MH++ (with cations), n = 4–8): 0.5 µg/mL (≈ 1.05 µM) | MBC (S. aureus ATCC 29213; ATCC29213, MH− (without cations), n = 4): 1 µg/mL (≈ 2.09 µM) | MIC (S. aureus ATCC 29213; ATCC29213, MH++ (with cations), 37 °C, 18–24 h, n = 4–8): 0.5 µg/mL (≈ 1.05 µM) | MIC (S. epidermidis PIA 8400; PIA8400, MH++ (cation adjusted Mueller-Hinton bouillon II), n = 4–8): 0.25 µg/mL (≈ 0.523 µM) | MBC (S. epidermidis PIA 8400; PIA8400, MH++ (with cations), n = 4–8): 1 µg/mL (≈ 2.09 µM) | MIC (S. epidermidis PIA 8400; PIA8400, MH− (Mueller-Hinton bouillon without cations), n = 4): 0.125 µg/mL (≈ 0.262 µM) | MBC (S. epidermidis PIA 8400; PIA8400, MH− (without cations), n = 4): 0.25 µg/mL (≈ 0.523 µM) | MIC (S. aureus MRSA): > 32 µg/mL | MBC (S. aureus MSSA; MH++ (with cations), n = 4–8): 0.125 µg/mL (≈ 0.262 µM) | MIC (S. aureus MSSA; MH++ (with cations), n = 4–8): 0.125 µg/mL (≈ 0.262 µM) | MBC (S. aureus MSSA; MH− (without cations), n = 4): 1 µg/mL (≈ 2.09 µM) | MIC (S. aureus MSSA; MH− (without cations), n = 4): 0.25 µg/mL (≈ 0.523 µM) | MIC (planktonic S. aureus): 1 µg/mL (≈ 2.09 µM) | ZOI (S. aureus (ATCC 29213)): 10.8 +/- 0.6 cm²

CO[C@H]1/C=C/O[C@@]2(C)Oc3c(C)c(O)c4c(O)c(c(/C=N/N5CCN(C)CC5)c(O)c4c3C2=O)NC(=O)/C(C)=C\C=C\[C@H](C)[C@H](O)[C@@H](C)[C@@H](O)[C@@H](C)[C@H](OC(C)=O)[C@@H]1C [rifampicin, reference compound]
internalized bacteria compared to 0 μg/ml AMP [= 100%] ([1]; 4 h): 15% | internalized bacteria compared to 0 μg/ml AMP [= 100%] ([1]; 24 h): 0.0006%

RRRIKIRWY [AMP4, 9mer cationic antimicrobial peptide … from an optimized peptide library]
concentrations with no negative effect on cell viability [2]: < 251 µg/mL | concentrations with significant inhibition of viability compared to the control group [2]: ≥ 251 µg/mL

RTKKWIVWI [AMP3, 9mer cationic antimicrobial peptide … from an optimized peptide library]
concentrations with no negative effect on cell viability [2]: < 68 µg/mL | concentrations with significant inhibition of viability compared to the control group [2]: ≥ 68 µg/mL

WRKFWKYLK [AMP5, 9mer cationic antimicrobial peptide … from an optimized peptide library]
concentrations with no negative effect on cell viability [2]: < 63 µg/mL | concentrations with significant inhibition of viability compared to the control group [2]: ≥ 63 µg/mL | concentrations with significant inhibition of alkaline phosphatase activity compared to the control group [3]: ≥ 63 µg/mL

YRLRVKWKW [AMP1, 9mer cationic antimicrobial peptide … from an optimized peptide library]
concentrations with no negative effect on cell viability [2]: < 100 µg/mL | concentrations with significant inhibition of viability compared to the control group [2]: ≥ 100 µg/mL | concentrations with significant inhibition of alkaline phosphatase activity compared to the control group [3]: all concentrations

daptomycin [reference compound]
biofilm growth (S. aureus biofilm): completely inhibited
